This assay deals with Stromal cell-derived factor 1 (Homo sapiens) (UniProt P48061). Briefly: Binding affinity to CXCL12 in human THP1 cells assessed as inhibition of CXCL12-induced cell migration at 25 uM incubated for 2 hrs by flow cytometry based chemotaxis assay. Particulars: THP-1.

Each structure is given as a SMILES string.

Usually inhibition stands for the drop in the measured response relative to a control, in per cent.

Chain of Stromal cell-derived factor 1 (Homo sapiens) (P48061 whole entry): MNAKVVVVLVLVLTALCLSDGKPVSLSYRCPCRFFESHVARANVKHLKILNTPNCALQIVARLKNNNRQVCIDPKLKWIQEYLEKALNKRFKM

For the molecule `O=C(NCCc1ccccc1)Nc1ccc(-c2nnn[nH]2)cc1`, the inhibition was found to be 40%.

Take `O=C(Nc1ccccc1)Nc1ccc(-c2nnn[nH]2)cc1`: the inhibition is 20%.
